Molecules are shown by their SMILES. Where a name gives a salt, the structure may show the parent alone.

For the first assay, the system named is murine thymus cells. As to the kind of experiment: in vitro stimulation of lymphocyte proliferation of murine thymus cells cultured in the presence of Concanavalin A (lymphocyte stimulation assay, LSA). Type of assay: cell-based, mouse (male C57B1/6). To be noted: Con A-stimulated thymus cells, 48 h at 37° C., highest 3H-thymidine cpm of eight concentrations 0.02 to 50 μg/ml, hydrohalide salts. The source says:
The immune regulant activity of the compounds of the present invention may be determined by such pharmacological tests as the stimulation in vitro of lymphocyte proliferation of murine thymus cells cultured in the presence of Concanavalin A (Con A), employing the general evaluation procedure of V. J. Merluzzi et. al., see Journal of Clinical and Experimental Immunology, Volume 22, page 486 (1975).
The immune regulant activity of the aminothiazoles described in Examples 2, 3, 4, 6, 7, 8, 10 and 11 was evaluated by determining their ability to stimulate, in vitro the lymphocyte proliferation of murine thymus cells cultured in the presence of Concanavalin A (Con A) by employing the procedure of V. J. Merluzzi et. al., as essentially described in the Journal of Clinical and Experimental Immunology, Vol. 22, p. 486 (1975). The cells were derived from male C57B1/6 mice of from 6-8 weeks age, purchased from the Jackson Laboratories of Bar Harbor, Maine and the Con A was obtained from Sigma Chemicals of St. Louis, Mo. Each cell culture (consisting of 0.10 ml thymus cells stock solution, 0.05 ml of Con A stock solution and 0.05 ml of drug solution) was performed in quadruplicate and cellular proliferation was measured, after 48 hours of incubation at 37° C., by pulsing each culture with ^3 H-thymidine (0.01 ml of specific activity 1.9 C/mM, obtained from Schwarz-Mann, Inc. of Orangeburg, N.Y.) and then determining the incorporation of ^3 H-thymidine into cellular deoxyribonucleic acid (DNA) by an assessment of radioactivity using a liquid scintillation counter. […] These quadruplicate determinations are employed at eight different concentrations of drugs in the range 0.02 to 50 μg/ml. The highest cpm value obtained is employed in the scoring system.
As to `c1ccc(-c2csc(NCc3cccs3)n2)cc1` [Example 6, 2-thenylamino-4-phenyl-thiazole hydrobromide], the LSA activity entry was “+++ (those having an activity (27,000±1,000 cpm) greater than levamisole were scored as +++)”.

Turning to `Br.c1ccc(CCNc2nc(-c3ccccc3)cs2)cc1` [Example 2, 2-phenethylamino-4-phenyl-thiazole hydrobromide], the LSA activity result is “+++ (those having an activity (27,000±1,000 cpm) greater than levamisole were scored as +++)”.

With `Br.Cc1sc(NCc2ccco2)nc1-c1ccccc1` [Example 10, 2-furfurylamino-5-methyl-4-phenyl-thiazole hydrobromide], the LSA activity entry was “+++ (those having an activity (27,000±1,000 cpm) greater than levamisole were scored as +++)”.

As for `Fc1ccc(-c2csc(NCc3cccs3)n2)cc1` [Example 7, 2-thenylamino-4(p-fluorophenyl)-thiazole hydrochloride], the LSA activity entry is recorded as “+++ (those having an activity (27,000±1,000 cpm) greater than levamisole were scored as +++)”.

Regarding `Br.Cc1sc(NCCc2ccccc2)nc1-c1ccccc1` [Example 3, 2-phenethylamino-4-phenyl-5-methylthiazole hydrobromide], the LSA activity result was “+++ (those having an activity (27,000±1,000 cpm) greater than levamisole were scored as +++)”.

The assay is the same for the next values; noted with them: levamisole standard; drug level with maximum activity, Con A-stimulated thymus cells, 48 h at 37° C.
Consider `c1ccc([C@H]2CN3CCSC3=N2)cc1` [levamisole, reference compound], for which the “average counts per minute of 3H-thymidine incorporated (LSA activity)” value is recorded as 22,000±900 cpm.

In another assay the test system is carrageenin-induced rat foot edema. As to the kind of experiment: carrageenin-induced rat foot edema test. The class given is in vivo, rat (male albino). To be noted: 33 mg/kg, p.o., 3 hours after carrageenin, vs non-drug treated control. The procedure:
The activity of the compounds of the present invention as anti-inflammatoryagents may be determined by pharmacological tests, for example the standard carrageenin-induced rat foot edema test using the general procedure described by C. A. Winter et. al., see Proceedings of the Society of Experimental Biology in Medicine, Volume 111, page 544 (1962). In this test, anti-inflammatory activity is determined as the percent inhibition of edema formation in the hind paw of male albino rats (generally weighing about 150 to 190 grams) in response to a sub-plantar injection of carrageenin. The carrageenin is injected as a 1% aqueous suspension 1 hour after oral administration of the drug, which is normally given in the form of an aqueous solution or suspension. Edema formation is then assessed 3 hours after the carrageenin injection by comparing the initial volume of the injected paw and the volume after a 3 hour period. The increase in volume 3 hours after carrageenin injection constitutes the individual response. Compounds are considered active if the response between the drug-treated animals (6 rats per group) and the control group, i.e. the animals receiving the vehicle alone, is found to be significant on comparison with the results afforded by standard compounds like acetylsalicyclic acid at 100 mg/kg or phenylbutazone at 33 mg/kg, both by the oral route of administration.
The anti-inflammatory activity of aminothiazoles of this invention was determined using the standard carrageenin-induced rat foot edema test, according to the procedure essentially as described by C. A. Winter etl. al., and reported in the Proceedings of the Society for Experimental Biology and Medicine, Vol. 111, p. 544 (1962). The compounds were administered orally in the form of their previously reported hydrohalide salts at a dose level of 33 mg/kg. The results obtained in this manner are presented in the table below in terms of the percent inhibition of edema formation afforded by each test compound as compared to the non-drug treated control (i.e., aqueous solution with no compound): […]
A general note: Carrageenan injected into the paw causes an acute inflammation.
As to `Br.c1ccc(CCNc2nc(-c3ccccc3)cs2)cc1` [Example 2, 2-phenethylamino-4-phenyl-thiazole hydrobromide], the “% Inhibition of edema” value amounted to 47%.

For `Fc1ccc(-c2csc(NCc3cccs3)n2)cc1` [2-thenyl, 4-fluorophenyl, hydrogen, HBr, 2-thenylamino-4-(p-fluorophenyl)-thiazole], the “% Inhibition of edema” value is reported as 49%.

Consider `COc1ccc(CCNc2nc(-c3ccc(F)cc3)cs2)cc1` [2-(p-methoxyphenethylamino)-4-(p-fluorophenyl)-thiazole], for which the “% Inhibition of edema” value is given as 29%.

The values above are taken from patent US4307106A, “Aminothiazoles” (Pfizer Inc., priority 1979, dated 1981).
